Experimental data: ChEMBL document CHEMBL1275397, “Effects on molecular conformation and anticoagulant activities of 1,6-anhydrosugars at the reducing terminal of antithrombin-binding octasaccharides isolated from low-molecular-weight heparin enoxaparin” (J Med Chem, 2010)

Key:
[1] = molecular target: Coagulation factor X (Homo sapiens) (UniProt P00742); experiment: Inhibition of factor 10a in aqueous buffer solutions assessed as specific activity of enzyme
[2] = molecular target: Coagulation factor X (Homo sapiens) (UniProt P00742); experiment: Inhibition of factor 10a in human plasma assessed as specific activity of enzyme; assay type: cell-free
[3] = Binding affinity to human antithrombin in HEPES buffer containing 0.1 M sodium chloride assessed as increase of serpin intrinsic fluorescence by fluorospectrophotometric analysis
[4] = Binding affinity to human antithrombin in HEPES buffer containing 0.25 M sodium chloride assessed as increase of serpin intrinsic fluorescence by fluorospectrophotometric analysis
[5] = Binding affinity to human antithrombin in HEPES buffer containing 0.50 M sodium chloride assessed as increase of serpin intrinsic fluorescence by fluorospectrophotometric analysis

Chain of Coagulation factor X (Homo sapiens) (P00742 41-179 limits assumed): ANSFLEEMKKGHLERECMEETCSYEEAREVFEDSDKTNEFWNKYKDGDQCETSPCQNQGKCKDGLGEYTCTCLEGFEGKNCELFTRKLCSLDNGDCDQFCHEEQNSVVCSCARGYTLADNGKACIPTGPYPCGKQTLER
Chain of Coagulation factor X (Homo sapiens) (P00742 235-488 limits assumed): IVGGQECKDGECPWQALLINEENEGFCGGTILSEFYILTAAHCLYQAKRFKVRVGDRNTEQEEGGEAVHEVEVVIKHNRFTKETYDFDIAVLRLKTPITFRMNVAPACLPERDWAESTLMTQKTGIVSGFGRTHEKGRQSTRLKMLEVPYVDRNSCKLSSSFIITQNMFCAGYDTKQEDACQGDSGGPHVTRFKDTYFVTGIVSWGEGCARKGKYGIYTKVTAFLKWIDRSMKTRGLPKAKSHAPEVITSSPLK

Row | SMILES | Activity [1] [U/mg] | Activity [2] [U/mg] | Kd [3] [nM] | Kd [4] [nM] | Kd [5] [nM]
1 | CC(=O)N[C@H]1[C@@H](O[C@H]2[C@H](O)[C@@H](O)[C@H](O[C@H]3[C@H](OS(=O)(=O)O)[C@@H](NS(=O)(=O)O)[C@@H](O[C@H]4[C@H](O)[C@@H](OS(=O)(=O)O)[C@H](O[C@H]5[C@H](O)[C@@H](NS(=O)(=O)O)[C@H]6OC[C@H]5O6)O[C@H]4C(=O)O)O[C@@H]3COS(=O)(=O)O)O[C@@H]2C(=O)O)O[C@H](COS(=O)(=O)O)[C@@H](O[C@@H]2O[C@@H](C(=O)O)[C@@H](O[C@H]3O[C@H](COS(=O)(=O)O)[C@@H](O[C@@H]4OC(C(=O)O)=C[C@H](O)[C@H]4OS(=O)(=O)O)[C@H](O)[C@H]3NS(=O)(=O)O)[C@H](O)[C@H]2O)[C@@H]1O | 39.6 | 39.3 | 1230 | > 10000 | –
2 | CC(=O)N[C@H]1[C@@H](O[C@H]2[C@H](O)[C@@H](O)[C@H](O[C@H]3[C@H](OS(=O)(=O)O)[C@@H](NS(=O)(=O)O)[C@@H](O[C@H]4[C@H](O)[C@@H](OS(=O)(=O)O)[C@H](O[C@H]5[C@H](O)[C@@H](NS(=O)(=O)O)[C@@H](O)O[C@@H]5COS(=O)(=O)O)O[C@H]4C(=O)O)O[C@@H]3COS(=O)(=O)O)O[C@@H]2C(=O)O)O[C@H](COS(=O)(=O)O)[C@@H](O[C@@H]2O[C@@H](C(=O)O)[C@@H](O[C@H]3O[C@H](COS(=O)(=O)O)[C@@H](O[C@@H]4OC(C(=O)O)=C[C@H](O)[C@H]4OS(=O)(=O)O)[C@H](O)[C@H]3NS(=O)(=O)O)[C@H](O)[C@H]2O)[C@@H]1O | – | – | 120 | – | 2740
3 | CC(=O)N[C@H]1[C@@H](O[C@H]2[C@H](O)[C@@H](O)[C@H](O[C@H]3[C@H](OS(=O)(=O)O)[C@@H](NS(=O)(=O)O)[C@@H](O[C@H]4[C@H](O)[C@@H](OS(=O)(=O)O)[C@H](O[C@H]5[C@H](O)[C@H](NS(=O)(=O)O)[C@H]6OC[C@H]5O6)O[C@H]4C(=O)O)O[C@@H]3COS(=O)(=O)O)O[C@@H]2C(=O)O)O[C@H](COS(=O)(=O)O)[C@@H](O[C@@H]2O[C@@H](C(=O)O)[C@@H](O[C@H]3O[C@H](COS(=O)(=O)O)[C@@H](O[C@@H]4OC(C(=O)O)=C[C@H](O)[C@H]4OS(=O)(=O)O)[C@H](O)[C@H]3NS(=O)(=O)O)[C@H](O)[C@H]2O)[C@@H]1O | 51.4 | 49.6 | 900 | > 10000 | –
